System: MPNST multicellular tumor spheroids, viability % test/control
Assay: Anticancer human tumor MPNST cell line growth inhibition;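 note: spheroids exposed to agents for seven days after three days of growth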;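 for viability, T/C: luminescence signal used as surrogate for viable cell amount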
Settings: for IC50: curve of first compound; for viability, T/C: stronger effect = lower value
In short: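 Single agents and combinations were tested on spheroids built from tumor cells plus HUVEC and hMSC, at half-log dilutions starting at or near clinical Cmax, else 10 microM; final DMSO 0.25% (v/v).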

Cc1sc2c(c1C)C(c1ccc(Cl)cc1)=NC(CC(=O)Nc1ccc(O)cc1)c1nnc(C)n1-2 (stereo unspecified) + Cn1nnc2c(C(N)=O)ncn2c1=O
IC50 (second compound 1 µM): 1440 nM
IC50 (second compound 3.16 µM): 813 nM
IC50 (second compound 10 µM): 1790 nM
IC50 (second compound 31.6 µM): > 3000 nM
IC50 (second compound 100 µM): 678 nM
viability, T/C (second compound 1 µM, first compound 0.00949 µM): 123%
viability, T/C (second compound 1 µM, first compound 0.03 µM): 97.7%
viability, T/C (second compound 1 µM, first compound 0.0949 µM): 78.7%
viability, T/C (second compound 1 µM, first compound 0.3 µM): 60.5%
viability, T/C (second compound 1 µM, first compound 0.949 µM): 51.3%
viability, T/C (second compound 1 µM, first compound 3 µM): 47.3%
viability, T/C (second compound 3.16 µM, first compound 0.00949 µM): 96.7%
viability, T/C (second compound 3.16 µM, first compound 0.03 µM): 125%
viability, T/C (second compound 3.16 µM, first compound 0.0949 µM): 92.4%
viability, T/C (second compound 3.16 µM, first compound 0.3 µM): 60.4%
viability, T/C (second compound 3.16 µM, first compound 0.949 µM): 49.7%
viability, T/C (second compound 3.16 µM, first compound 3 µM): 45.8%
viability, T/C (second compound 10 µM, first compound 0.00949 µM): 102%
viability, T/C (second compound 10 µM, first compound 0.03 µM): 123%
viability, T/C (second compound 10 µM, first compound 0.0949 µM): 93.8%
viability, T/C (second compound 10 µM, first compound 0.3 µM): 62.7%
viability, T/C (second compound 10 µM, first compound 0.949 µM): 50.7%
viability, T/C (second compound 10 µM, first compound 3 µM): 48.5%
viability, T/C (second compound 31.6 µM, first compound 0.00949 µM): 95.6%
viability, T/C (second compound 31.6 µM, first compound 0.03 µM): 108%
viability, T/C (second compound 31.6 µM, first compound 0.0949 µM): 91.7%
viability, T/C (second compound 31.6 µM, first compound 0.3 µM): 60%
viability, T/C (second compound 31.6 µM, first compound 0.949 µM): 50%
viability, T/C (second compound 31.6 µM, first compound 3 µM): 51.4%
viability, T/C (second compound 100 µM, first compound 0.00949 µM): 91.5%
viability, T/C (second compound 100 µM, first compound 0.03 µM): 87%
viability, T/C (second compound 100 µM, first compound 0.0949 µM): 83.2%
viability, T/C (second compound 100 µM, first compound 0.3 µM): 58.6%
viability, T/C (second compound 100 µM, first compound 0.949 µM): 47.3%
viability, T/C (second compound 100 µM, first compound 3 µM): 43.7%

Cc1cc(C)c(CNC(=O)c2cc(-c3ccc(CN4CCOCC4)cc3)cc3c2cnn3C2CCCC2)c(=O)[nH]1 + COc1cc2c(cc1O)CCNC21CSC2c3c(OC(C)=O)c(C)c4c(c3C(COC1=O)N1C(O)C3Cc5cc(C)c(OC)c(O)c5C(C21)N3C)OCO4
IC50 (second compound 30 pM): > 10000 nM
IC50 (second compound 94.9 pM): > 10000 nM
IC50 (second compound 0.0003 µM): > 10000 nM
IC50 (second compound 0.000949 µM): < 31.6 nM
IC50 (second compound 0.003 µM): < 31.6 nM
viability, T/C (second compound 30 pM, first compound 0.0316 µM): 106%
viability, T/C (second compound 30 pM, first compound 0.1 µM): 93.7%
viability, T/C (second compound 30 pM, first compound 0.316 µM): 85.2%
viability, T/C (second compound 30 pM, first compound 1 µM): 101%
viability, T/C (second compound 30 pM, first compound 3.16 µM): 113%
viability, T/C (second compound 30 pM, first compound 10 µM): 99.3%
viability, T/C (second compound 94.9 pM, first compound 0.0316 µM): 104%
viability, T/C (second compound 94.9 pM, first compound 0.1 µM): 89.8%
viability, T/C (second compound 94.9 pM, first compound 0.316 µM): 71%
viability, T/C (second compound 94.9 pM, first compound 1 µM): 102%
viability, T/C (second compound 94.9 pM, first compound 3.16 µM): 120%
viability, T/C (second compound 94.9 pM, first compound 10 µM): 68.9%
viability, T/C (second compound 0.0003 µM, first compound 0.0316 µM): 86%
viability, T/C (second compound 0.0003 µM, first compound 0.1 µM): 80.3%
viability, T/C (second compound 0.0003 µM, first compound 0.316 µM): 83.3%
viability, T/C (second compound 0.0003 µM, first compound 1 µM): 98%
viability, T/C (second compound 0.0003 µM, first compound 3.16 µM): 91.4%
viability, T/C (second compound 0.0003 µM, first compound 10 µM): 70.7%
viability, T/C (second compound 0.000949 µM, first compound 0.0316 µM): 41.3%
viability, T/C (second compound 0.000949 µM, first compound 0.1 µM): 53.5%
viability, T/C (second compound 0.000949 µM, first compound 0.316 µM): 46%
viability, T/C (second compound 0.000949 µM, first compound 1 µM): 43.6%
viability, T/C (second compound 0.000949 µM, first compound 3.16 µM): 44.3%
viability, T/C (second compound 0.000949 µM, first compound 10 µM): 41.6%
viability, T/C (second compound 0.003 µM, first compound 0.0316 µM): 13.1%
viability, T/C (second compound 0.003 µM, first compound 0.1 µM): 12.2%
viability, T/C (second compound 0.003 µM, first compound 0.316 µM): 12.1%
viability, T/C (second compound 0.003 µM, first compound 1 µM): 13.5%
viability, T/C (second compound 0.003 µM, first compound 3.16 µM): 12.6%
viability, T/C (second compound 0.003 µM, first compound 10 µM): 9.87%

O=C(c1cc(Cc2n[nH]c(=O)c3ccccc23)ccc1F)N1CCN(C(=O)C2CC2)CC1 + CC[C@@]1(O)C(=O)OCc2c1cc1n(c2=O)Cc2cc3c(CN(C)C)c(O)ccc3nc2-1
IC50 (second compound 0.003 µM): > 30000 nM
IC50 (second compound 0.00949 µM): > 30000 nM
IC50 (second compound 0.03 µM): > 30000 nM
IC50 (second compound 0.0949 µM): > 30000 nM
IC50 (second compound 0.3 µM): < 94.9 nM
viability, T/C (second compound 0.003 µM, first compound 0.0949 µM): 87.4%
viability, T/C (second compound 0.003 µM, first compound 0.3 µM): 78%
viability, T/C (second compound 0.003 µM, first compound 0.949 µM): 72.9%
viability, T/C (second compound 0.003 µM, first compound 3 µM): 68%
viability, T/C (second compound 0.003 µM, first compound 9.49 µM): 69.5%
viability, T/C (second compound 0.003 µM, first compound 30 µM): 58.2%
viability, T/C (second compound 0.00949 µM, first compound 0.0949 µM): 81.5%
viability, T/C (second compound 0.00949 µM, first compound 0.3 µM): 73.7%
viability, T/C (second compound 0.00949 µM, first compound 0.949 µM): 62.2%
viability, T/C (second compound 0.00949 µM, first compound 3 µM): 59.3%
viability, T/C (second compound 0.00949 µM, first compound 9.49 µM): 59.9%
viability, T/C (second compound 0.00949 µM, first compound 30 µM): 59%
viability, T/C (second compound 0.03 µM, first compound 0.0949 µM): 53.5%
viability, T/C (second compound 0.03 µM, first compound 0.3 µM): 59.2%
viability, T/C (second compound 0.03 µM, first compound 0.949 µM): 57%
viability, T/C (second compound 0.03 µM, first compound 3 µM): 58.4%
viability, T/C (second compound 0.03 µM, first compound 9.49 µM): 60.9%
viability, T/C (second compound 0.03 µM, first compound 30 µM): 55.3%
viability, T/C (second compound 0.0949 µM, first compound 0.0949 µM): 57.5%
viability, T/C (second compound 0.0949 µM, first compound 0.3 µM): 53.1%
viability, T/C (second compound 0.0949 µM, first compound 0.949 µM): 58.5%
viability, T/C (second compound 0.0949 µM, first compound 3 µM): 54.9%
viability, T/C (second compound 0.0949 µM, first compound 9.49 µM): 54.6%
viability, T/C (second compound 0.0949 µM, first compound 30 µM): 55%
viability, T/C (second compound 0.3 µM, first compound 0.0949 µM): 49.3%
viability, T/C (second compound 0.3 µM, first compound 0.3 µM): 50.7%
viability, T/C (second compound 0.3 µM, first compound 0.949 µM): 50.5%
viability, T/C (second compound 0.3 µM, first compound 3 µM): 46.3%
viability, T/C (second compound 0.3 µM, first compound 9.49 µM): 47.8%
viability, T/C (second compound 0.3 µM, first compound 30 µM): 38.6%

COc1cc2c(cc1O)CCNC21CSC2c3c(OC(C)=O)c(C)c4c(c3C(COC1=O)N1C(O)C3Cc5cc(C)c(OC)c(O)c5C(C21)N3C)OCO4 (stereo unspecified)
viability, T/C (compound 0.003 µM): 12.3% [middle of 10 runs]

From PubChem BioAssay AID1845205 (Molecular Pharmacology Branch, DTP, NCI, 2023)
